Data: patent US20240327372A1, “PREPARATION OF PHENE[…] […] STEREOISOMERS THEREOF AND PRECURSORS THEREOF” (priority 2022, published 2024)

Tests used:
[1] = biological target: dopamine transporter (DAT) (Rattus norvegicus (Rat), UniProt P23977); assay: Competition radioligand binding, [3H]WIN35428, rat brain membranes; conditions: for IC50 / Ki: DA transporter; for Ki: Cheng-Prusoff
Excerpt: Rat brain (Sprague Dawley, 200-250 g) synaptosomes were isolated from midbrain and hindbrain for serotonin transporter assays, striatum for dopamine transporter assays, and hippocampus plus overlying occipital cortex for norepinephrine transporter assays. Radioligands used were: [^3H]Citalopram 81.4 Ci/mmol (PerkinElmer NET1039250UC; Lot No. 2960876). [^3H]WIN35428 82.8 Ci/mmol (PerkinElmer NET1033250UC; Lot No. 2891473). [^3H]Nisoxetine 79.2 Ci/mmol (PerkinElmer NET1084250UC; Lot No. 2970324). Non-specific compounds used were: Citalopram (Tocris Bioscience 1427). JHW007 (Tocris Bioscience 4351). Nomifensine (Abcam ab146004). Test Compounds for the study were: racemic methylone HCl; (R)-methylone HCl; (S)-methylone HCl.
For membrane preparations, rat brains were dissected, tissue was added to ice-cold lysis buffer (50 mM Tris HCl; 5 mM MgCl2; 5 mM EDTA; protease inhibitor cocktail) and homogenized. The homogenate was centrifuged at 100×g for 2 minutes and the supernatant divided into polypropylene Eppendorf tubes. The supernatants were centrifuged at 17,000×g for 10 minutes at 4° C. to re-pellet the cell lysate. The pellet was resuspended in fresh wash buffer (50 mM Tris-HCl; 5 mM MgCl2; 5 mM EDTA) and centrifuged a third time at 17,000×g for 10 minutes at 4° C. The pellet was resuspended in wash buffer containing 10% sucrose as a cryoprotectant, divided into aliquots (0.3 mL) and stored at −80° C. A sample of the homogenate was analyzed for protein content using the MERCK® BCA assay. On the day of the assay, the membrane preparation was thawed and the pellet resuspended in final assay buffer.
Competition binding assays were carried out in 96-well polypropylene plates in a final volume of 250 μL per well. To each well was added 150 μL membranes, 50 μL of test compound, non-specific compound or buffer, and 50 μL radioligand solution in buffer. The plate was incubated at 30° C. for 90 minutes with gentle agitation. The incubation was stopped by vacuum filtration onto presoaked (wash buffer with PEI) GF/C filters using a 96-well FILTERMATE™ harvester, followed by 5 washes with ice-cold wash buffer. Filters were then dried under a warm air stream, sealed in polyethylene, scintillation cocktail added, and the radioactivity counted in a WALLAC® TriLux 1450 MicroBeta counter. For each concentration of drug, non-specific binding was subtracted from total binding to give specific binding. Data was fitted using the non-linear curve fitting routines in PRISM® (Graphpad Software Inc) to determine IC50. Ki was subsequently calculated using the ChengPrusoff equation.

[2] = system: rat forced swim test (FST); assay: Rat forced swim test (FST); type: in vivo; conditions: single dose 10 mg/kg IP, 30 min before testing
Description: All FST studies are performed and scored by an experimenter blind to treatment group and according to standard protocols. Briefly, rats are placed in a circular plexiglass container filled with water. Water temperature is maintained at 22-25° C. and changed for every animal. Day 1 (Training) consists of a 15 min acclimation trial, and Day 2 (Testing, 24 h later) consists of the 5 min test. A time sampling procedure is employed where animals are observed every 5 seconds for the duration of the test session (60 counts or 5 minutes) and scored for immobility (defined as the failure to struggle), swimming (defined as a circular movement around the tank), or climbing (defined as an upwards escape behavior). Data are expressed as the percent of the testing session (e.g., the number of immobility counts divided by 60). A p-value less than 0.05 indicates statistical significance after typical statistical analyses (e.g., unpaired t-test or ANOVA).
To determine that the prodrug and/or enantiomer has an antidepressant-like effect and to compare it to methylone, rats are treated with each compound 30 min prior to testing. Additional tests are run 24, 72, 168 hours post-dose or longer.
Racemic methylone (10 mg/kg, IP) has a maximal antidepressant-like effect in the rat forced swim test (FST), reducing immobility by nearly 100% compared to vehicle treated controls. To determine whether one enantiomer of methylone could mimic the robust antidepressant-like effect of racemic methylone, rats were treated with a single dose of racemic methylone, (R)-methylone, (S)-methylone (all 10 mg/kg, IP) or vehicle 30 min before testing in the FST. […] Therefore, all of the activity of methylone appears to be driven by the activity of one enantiomer ((S)-methylone).

[3] = biological target: hKir2.1 (Homo sapiens (Human), UniProt P63252); type: cell-based; conditions: Kir2.1, Antagonist mode, test compound
Sequence of hKir2.1 (P63252 whole entry): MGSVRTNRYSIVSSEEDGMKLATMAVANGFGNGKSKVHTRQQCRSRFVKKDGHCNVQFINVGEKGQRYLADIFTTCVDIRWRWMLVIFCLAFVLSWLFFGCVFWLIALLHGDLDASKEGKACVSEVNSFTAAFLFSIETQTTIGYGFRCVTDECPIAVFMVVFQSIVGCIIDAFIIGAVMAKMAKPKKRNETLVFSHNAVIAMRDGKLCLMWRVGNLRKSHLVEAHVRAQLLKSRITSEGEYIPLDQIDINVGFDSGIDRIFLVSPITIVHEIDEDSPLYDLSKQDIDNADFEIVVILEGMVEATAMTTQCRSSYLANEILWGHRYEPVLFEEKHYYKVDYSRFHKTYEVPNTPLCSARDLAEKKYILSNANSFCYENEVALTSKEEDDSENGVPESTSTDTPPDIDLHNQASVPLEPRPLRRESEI
Description: (§1) Electrophysiological assays were conducted to profile three compounds ((R)-methylone, (S)-methylone, or racemic methylone) for activities on the ion channel targets specified below using the Qube electrophysiological platform. Where presented, IC50 values were determined by a non-linear, least squares regression analysis. Reference standards were run as an integral part of each assay to ensure the validity of the results obtained.
(§2) Ion Channels tested were Eurofins Panel Part Number: CPROFullQB2DR Voltage-Gated Sodium: HEK-Nav1.5 (Peak), HEK-Nav1.5 (Late, Antagonist) Voltage-Gated Potassium: HEK-Kv4.3/KChIP2, CHO-hERG, CHO-KCNQ1/minK Voltage-Gated Calcium: HEK-Cav1.2 Inward-Rectifying Voltage-Gated Potassium: HEK-Kir2.1.
hKir2.1 Potassium Channel Assay—Qube APC After whole cell configuration is achieved, the cells are held at −30 mV. Kir2.1 currents are evoked by a single 500 ms pulse to −120 mV before returning to the holding potential of −30 mV. This paradigm is delivered once every 20 s to monitor the current amplitude.

[4] = biological target: hNav1.5 Late Current (Homo sapiens (Human), UniProt Q14524); assay: hNav1.5 Late Current Sodium Channel Assay, Qube APC; type: cell-based; conditions: Nav1.5 Late Current, Antagonist mode, test compound
Description: as §1, §2
hNav1.5 Late Current Sodium Channel Assay—Qube APC Onset and steady state block of Late Nav1.5 current is measured using a pulse pattern, repeated every 5 sec, consisting of a hyperpolarizing pulse to −120 mV for a 200 ms duration, depolarization to −15 mV amplitude for a 40 ms duration, followed by step to 40 mV for 200 ms and finally a 100 ms ramp (1.2 V/s) to a holding potential of −80 mV. Late current is measured as charge current elicited during the ramp with 50 nM ATXII.

SMILES: CN[C@H](C)C(=O)c1ccc2c(c1)OCO2 [(R)-methylone]
- IC50 [1]: 24.7 µM
- Ki [1]: 12.3 µM
- Potency relative to racemic methylone ([1]; DAT binding): approximately three-fold less potent
- Antidepressant-like effect in the FST [2]: no effect
- Estimated IC50 [3]: N/C (N/C indicates observed mean inhibition was <25%)
- Estimated IC50 [4]: N/C (N/C indicates observed mean inhibition was <25%)

SMILES: CN[C@@H](C)C(=O)c1ccc2c(c1)OCO2 [(S)-methylone]
- IC50 [1]: 8.34 µM
- Ki [1]: 4.14 µM
- Antidepressant-like effect in the FST [2]: mimicked the rapid and robust antidepressant-like effect of racemic methylone
- Estimated IC50 [3]: N/C (N/C indicates observed mean inhibition was <25%)
- Estimated IC50 [4]: N/C (N/C indicates observed mean inhibition was <25%)
